Test results published in patent publication US20070197654A1, “COMBINATION OF A CB1 RECEPTOR ANTAGONIST AND OF A PRODUCT WHICH ACTIVATES DOPAMINERGIC NEUROTRANSMISSION IN THE BRAIN, THE PHARMACEUTICAL COMPOSITIONS COMPRISING THEM AND THEIR USE IN THE TREATMENT OF PARKINSON'S DISEASE” (AVENTIS PHARMA S.A., priority 2001, published 2007).
Marks after values point to notes of the source that are not given here.

Experiments:
Type in all cases: in vivo
[1] = tested on: Reserpine-treated rats; assay: Reserpine-treated rat: locomotor activity, CB1 antagonist po combined with strong dose of C1-APB (SKF 82958); details: locomotion recorded 1 hour
Description: (§1) The synergistic effect of the combination of one or more products which activate dopaminergic neurotransmission in the brain and of one or more CB1 antagonists in the treatment of Parkinson's disease was determined in a model of akinesia induced by reserpine in the rat according to the following protocol:
(§2) Male Sprague-Dawley rats were treated with reserpine administered subcutaneously at a dose of 3 mg/kg (1 ml/kg) in order to induce akinesia in the animal. 18 hours after this treatment, the locomotor activity of these animals was measured and recorded using an automatic system (Videotrack, France). The locomotion, expressed in centimeters, is estimated by a mean overall distance covered during this period (n=11-38 rats per group). The statistical analysis is carried out by variance analysis and a post-hoc comparison (if appropriate) using a Mann-Whitney or Dunnett test. A significant effect is recorded for p<0.05.
(§3) The studies by the oral route are carried out in a hydrophobic formulation solvent Labrafil/Labrasol (40/60%, w/w). These products are administered (in a volume of 1 ml/kg) one hour before the dopaminergic agonist. The recording of the locomotor activity begins 5 min after the intraperitoneal injection of the dopaminergic agonist and lasts 1 hour. The D1 dopaminergic agonist is 0.3 mg/kg C1-APB. The D2 dopaminergic agonist is 0.1 mg/kg quinpirole.
(§4) The results for the po administration of the CB1 antagonist at three different doses (1, 3 and 10 mg/kg/po) (Table 2) are expressed as percentage of increase with respect to the activity of quinpirole and a percentage of decrease with respect to the activity of a strong dose of C1-APB (SKF 82958).

[2] = tested on: Reserpine-treated rats; assay: Reserpine-induced akinesia in the rat: locomotor activity, CB1 antagonist po combined with quinpirole; details: locomotion recorded 1 hour
Description: as §1, §2, §3, §4

[3] = tested on: Reserpine-treated rats; assay: Reserpine-induced akinesia in the rat: locomotor activity, CB1 antagonist ip combined with quinpirole; details: CB1 antagonist 1 mg/kg i.p., locomotion recorded 1 hour
Description: as §1, §2
(§5) The results for the ip administration of the CB1 antagonist (Table 1) are expressed as percentage of increase with respect to the activity of quinpirole and as percentage of decrease with respect to the activity of a very strong dose of levodopa.
The combination of a CB1 receptor antagonist and of a D2 dopaminergic agonist (quinpirole) is produced in the following way: […]

[4] = tested on: Reserpine-treated rats; assay: Reserpine-treated rat, dyskinesia model: locomotor activity, CB1 antagonist ip combined with strong dose of levodopa; details: CB1 antagonist 1 mg/kg i.p.; levodopa 120 mg/kg + benserazide 50 mg/kg i.p.; locomotion recorded 2.5 hours
Description: as §1, §2, §5
The combination of the CB1 receptor antagonist and of a strong dose of levodopa (dyskinesia model) is produced in the following way: […]

## Cc1c(C(=O)NN2CCCCC2)nn(-c2ccc(Cl)cc2Cl)c1-c1ccc(Cl)cc1.Cl [SR141716A, N-(piperidin-1-yl)-5-(4-chlorophenyl)-1-(2,4-dichlorophenyl)-4-methyl-1H-pyrazole-3-carboxamide hydrochloride]
[1]; CB1 antagonist 1 mg/kg po one hour before C1-APB
  Combination with C1-APB (0.3 mg/kg ip): percentage of decrease with respect to the activity of a strong dose of C1-APB: −32% NS
[1]; CB1 antagonist 3 mg/kg po one hour before C1-APB
  Combination with C1-APB (0.3 mg/kg ip): percentage of decrease with respect to the activity of a strong dose of C1-APB: −58%*
[1]; CB1 antagonist 10 mg/kg po one hour before C1-APB
  Combination with C1-APB (0.3 mg/kg ip): percentage of decrease with respect to the activity of a strong dose of C1-APB: −82%**
[2]; CB1 antagonist 1 mg/kg po one hour before quinpirole
  Combination with quinpirole (0.1 mg/kg ip): percentage of increase with respect to the activity of quinpirole: +57%* NS
[2]; CB1 antagonist 3 mg/kg po one hour before quinpirole
  Combination with quinpirole (0.1 mg/kg ip): percentage of increase with respect to the activity of quinpirole: +121%**
[2]; CB1 antagonist 10 mg/kg po one hour before quinpirole
  Combination with quinpirole (0.1 mg/kg ip): percentage of increase with respect to the activity of quinpirole: +87%**
[3]
  Combination with quinpirole (62.5 μg/kg ip): percentage of increase with respect to the activity of quinpirole: +116%***
[4]
  Combination with levodopa (120 mg/kg ip): percentage of decrease with respect to the activity of a very strong dose of levodopa: −61%*
